The values below come from paper PMC9673804, “Design, synthesis and antitumor evaluation of novel pyrazolo[3,4-d]pyrimidines incorporating different amino acid conjugates as potential DHFR inhibitors” (Journal of Enzyme Inhibition and Medicinal Chemistry, 2022).

What is called IC50 is the concentration needed to halve the response being measured. Low values mean inhibition by little substance, high ones a need for much substance. The inhibition is the percentage by which the read-out fell short of the control. Lower therefore signals little suppression.

Several values for one entry are separate records, joined by “and”; a condition that tells them apart may be missing. Identical values can stand only once.

The target in experiment [1] is T1, human DHFR enzyme (Homo sapiens, UniProt P00374).
T1 construct: purchased MyBioSource MBS9312476
T1 sequence (P00374 1-187): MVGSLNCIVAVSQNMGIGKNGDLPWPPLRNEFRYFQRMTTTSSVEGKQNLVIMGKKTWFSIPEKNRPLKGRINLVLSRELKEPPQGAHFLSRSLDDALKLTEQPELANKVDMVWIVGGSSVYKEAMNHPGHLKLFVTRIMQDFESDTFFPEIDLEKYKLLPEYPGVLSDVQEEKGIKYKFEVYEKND
Nature of the experiment: Elisa assay of human DHFR enzyme. Format: biochemical. The settings on record: for IC50: DHFR ELISA kit, triplicate; for inhibition at 0.1 µM: conc 0.1 uM; for inhibition at 1 µM: conc 1 uM; for inhibition at 10 µM: conc 10 uM; for inhibition at 100 µM: conc 100 uM. The method, then:
Enzyme-linked immunosorbent assay (ELISA) assay technique was used to evaluate the anti-DHFR effects of all the synthesised compounds on as described previously. The DHFR ELISA kit (MyBioSource, MBS9312476 San Diego, CA, USA) was used according to the manufacturer instructions. […] The test was repeated in triplicate, and the significance was assessed by one-way ANOVA test followed by Tukey’s posttest, where p < 0.05 was considered significance.

In experiment [2] the test system is normal immortalised pancreatic cell line (HPDE). Kind of experiment: SRB cytotoxicity assay, normal HPDE cells. Format: cell-based. The following applies: normal immortalized HPDE cell line. The method, then: (§1) The SRB colorimetric assay was employed to assess the synthesized compounds’ cytotoxic effects on several cancer cell lines (Table 1)[11–14]. […] Furthermore, the effect of tested compounds was evaluated on the normal immortalized HPDE cell line.
(§2) Sulforhodamine B (SRB) assay was employed to assay in-vitro antitumor activities of all the synthesised compounds as describer previously. […] The cell lines were obtained from the American Type Culture Collection (Rockville, USA).
(In general: Sulforhodamine B stains cellular protein and so reports cell mass.)

Experiment [3] relates to human hepatocellular carcinoma (HepG-2). Kind of experiment: SRB cytotoxicity assay, HepG-2. Format: cell-based. The settings on record: HepG2, HepG-2 cells. The method, then: as §1, §2
Experiment [4] relates to colorectal carcinoma (HCT-116). Nature of the experiment: SRB cytotoxicity assay, HCT-116. Format: cell-based. The settings on record: Homo sapiens, HCT-116 cells. Here is the method: as §1, §2
Experiment [5] deals with pancreatic human cancer cell lines (BxPC-3). Kind of experiment: SRB cytotoxicity assay, BxPC-3. Format: cell-based. The following applies: BxPC-3 cells. The method, then:
as §1, §2

Experiment [6] concerns cervical carcinoma (HeLa). Nature of the experiment: SRB cytotoxicity assay, HeLa. Format: cell-based. The settings on record: Homo sapiens, HeLa cells.
Experiment [7] concerns mammary gland breast cancer (MCF-7). Nature of the experiment: SRB cytotoxicity assay, MCF-7. Format: cell-based. The settings on record: Homo sapiens, MCF7, MCF-7 cells. Here is the method: as §1, §2
Experiment [8] concerns human prostate cancer (PC-3). Nature of the experiment: SRB cytotoxicity assay, PC-3. Format: cell-based. The settings on record: PC-3 cells. Here is the method:
as §1, §2

As to `O=C(O)C1CCCN1C(=O)c1ccc(Nc2ncnc3c2cnn3-c2ccccc2)cc1` (stereo not drawn) [Compound 7j, 1-{4-[(1-Phenyl-1H-pyrazolo[3,4-d]pyrimidin-4-yl)amino]benzoyl}pyrrolidine-2-carboxylic acid], the IC50 in experiment [1] is < 1 µM and 0.54 µM; in experiment [2], greater than 50 µM; in experiment [3], 10.3 ± 1.2 µM; in experiment [4] it was 8.1 ± 0.2 µM; in experiment [5] it was 6.19 ± 0.43 µM; in experiment [6], 9.29 ± 0.2 µM. Moreover, the 50% inhibitory concentration (IC50) stood at 8.19 ± 1.2 µM in experiment [7] and 11.2 ± 0.7 µM in experiment [8]. The molecule also registered an inhibition at 0.1 µM in experiment [1] of 41%. The same molecule registered an inhibition at 1 µM in experiment [1] of 64%. In experiment [1], this molecule had an inhibition at 10 µM of 80%. The molecule also came in with an inhibition at 100 µM in experiment [1] of 93%.

With `CCC(C)C(NC(=O)c1ccc(Nc2ncnc3c2cnn3-c2ccccc2)cc1)C(=O)O` (stereo not drawn) [Compound 7d, 3-Methyl-2-{4-[(1-phenyl-1H-pyrazolo[3,4-d]pyrimidin-4-yl)amino]benzamido}pentanoic acid], the 50% inhibitory concentration (IC50) is < 1 µM and 0.43 µM in experiment [1]; greater than 50 µM in experiment [2]; 9.09 ± 0.71 µM in experiment [3]; 10.1 ± 1.01 µM in experiment [4]; 11.2 ± 0.41 µM in experiment [5]; 8.09 ± 0.51 µM in experiment [6]. Moreover, the 50% inhibitory concentration (IC50) in experiment [7] was 5.51 ± 0.28 µM; in experiment [8], 9.99 ± 0.81 µM. The molecule also returned an inhibition at 0.1 µM in experiment [1] of 42%. This molecule also showed an inhibition at 1 µM in experiment [1] of 66%. In experiment [1], this molecule yielded an inhibition at 10 µM of 85%. For the same molecule, in experiment [1], testing at 100 µM gave an inhibition of 95%.

`CSCCC(NC(=O)c1ccc(Nc2ncnc3c2cnn3-c2ccccc2)cc1)C(=O)O` (stereo not drawn) [Compound 7h, 4-(Methylthio)-2-{4-[(1-phenyl-1H-pyrazolo[3,4-d]pyrimidin-4-yl)amino]benzamido}butanoic acid]: the concentration for half-maximal inhibition (IC50) in experiment [1] was 8.47 ± 0.18 µM; in experiment [2] it was greater than 50 µM; in experiment [3], 17 ± 0.92 µM; in experiment [4], 19.3 ± 0.85 µM; in experiment [5], 17.9 ± 1.03 µM; in experiment [6], 18 ± 1.2 µM. The IC50 in experiment [7] worked out at 20 ± 2.01 µM; in experiment [8], 17 ± 2.02 µM. In experiment [1], 0.1 µM produced 21% inhibition. Besides, in experiment [1], the inhibition at 1 µM came to 36%. The same molecule gave an inhibition at 10 µM in experiment [1] of 54%. In experiment [1], the inhibition at 100 µM is 81%.
